Test results as given in US7056491B2, “Monoterpenes and sesquiterpenes as chemotherapeutic and radiation sensitizers and immunomodulators” (Wisconsin Alumni Research Foundation, priority 2000, dated 2006).

What was measured:
Type in all cases: cell-based, human
Fas Ligand = test: Membrane bound Fas ligand staining by flow cytometry
Procedure: Referring to FIG. 17, glioma cell lines (T98G, U251, U87 and U353) were treated with 0.3 mM perillyl alcohol (POH) for 72 hours and the cells were harvested using cell dissociation solution. The resulting cell pellet was stained with biotinylated antibody specific to the human Fas-Ligand (Pharmingen), or IgG1 k isotype control for 45 minutes at 4° C. The cells were washed and incubated with streptavidin conjugated phycoerythrin washed and analyzed by flow cytometry.
(§1) The cells were harvested using cell dissociation solution, and the resulting cell pellet was washed and incubated with biotinylated anti-human antibody, which served as a control to eliminate non-specific binding. Following the primary antibody incubation the cells were washed and subsequently stained with secondary antibody conjugated to phycoerythrin (PE) (PharMingen) and antibody to CD95 directly conjugated to allophycocyanin (APC). The stained cells were analyzed using a Beckton-Dickinson FACStar plus and the results were acquired using CELLquest software.
(§2) Subconfluent cultures of the indicated glioma (T98G, U251, U353, U87MG), prostate (DU145, PC3), colon (DLD-1) and melanoma (Mel5) cell lines were treated with varying concentrations of POH (0.1 mM–1 mM POH) dissolved in medium for 72 hours. […] The stained cells were analyzed using a Beckton-Dickinson FACStar plus and the results were acquired using CELLquest. […]

U251 cells = test: Clonogenic survival assay, POH with or without radiation, U251
Procedure: Subconfluent cultures of human glioma cell line U251 were treated with 0.1–0.5 mM of POH for 72 hours and subsequently to increasing doses of radiation from 0.1 Gy to 8.5 Gy. Control cells were treated with the indicated doses of radiation alone. The cells were harvested and an optimum number of cells were allowed to grow for 14 days. The resulting colonies were stained and counted. Each graphed point represents mean values ± SE values of triplicate dishes.
Table 1 summarizing data from different cell lines treated with radiation, radiation plus POH, and POH alone. Subconfluent cultures of human glioma (T98G, M059K, U251), prostate (DU145, PC3), colon (DLD-1, HT29) and pancreatic (MIAPACA) cancer cell lines were treated with 0.1–0.5 mM of POH for 72 hours and subsequently to increasing doses of radiation from 0.1 Gy to 8.5 Gy. Control cells were treated with medium alone. The cells were harvested and an optimum number of cells were allowed to grow for 14 days. The resulting colonies were stained and counted. Each graphed point represents mean values ± SE values of triplicate dishes. Percentage survival was determined as the ratio of plating efficiencies for each irradiated group to that of the unirradiated control.

Fas receptor = Fas receptor (CD95) staining by flow cytometry; settings: 0.1 mM–1 mM POH 72 hours; same cell lines except U87MG
Procedure: as §1
as §2, with “hours. At the end of the incubation, the cells were harvested using cell dissociation solution, and the resulting cell pellet was washed and incubated with biotinylated anti-human antibody to the FasL (PharMingen) or with an isotype matched anti-human antibody, which served as a control to eliminate non-specific binding.” for “hours.”

C=C(C)[C@@H]1CC=C(CO)CC1 [POH, Perillyl alcohol]
Fas Ligand in glioma, prostate, colon and melanoma cell lines (Fas Ligand; 0.1 mM–1 mM POH 72 hours, more pronounced at lower concentrations): upregulation of the Fas Ligand
membrane bound Fas ligand on glioma cell lines (Fas Ligand; T98G, U251, U87, U353, 0.3 mM POH 72 hours): upregulation
% SURVIVAL (U251 cells; 0.1 mM POH 72 h, no radiation): 1.066 ± 0.200%
% SURVIVAL (U251 cells; 0.1 mM POH + 5.5 Gy): 0.253 ± 0.004%
% SURVIVAL (U251 cells; 0.3 mM POH 72 h, no radiation): 0.397 ± 0.059%
% SURVIVAL (U251 cells; 0.3 mM POH + 5.5 Gy): 0.046 ± 0.005%
% SURVIVAL (U251 cells; 0.5 mM POH 72 h, no radiation): 0.257 ± 0.010%
% SURVIVAL (U251 cells; 0.5 mM POH + 5.5 Gy): 0.019 ± 0.001%
levels of the Fas receptor (Fas receptor): did not alter
